In patent publication US9920295B2, “Bioreactor for isolation of rare cells and methods of use” (The Trustees of the University of Pennsylvania, priority 2012, dated 2018):

Key:
[1] = system: CD34+-derived cells (HSC, MPP, CPP); assay: HSC/P subpopulation analysis by flow cytometry; assay type: cell-based, human
Procedure: Freshly purified bone marrow-derived human CD34^+ cells were obtained from either the Penn Xenograft Core Facility or AllCells (Emeryville, Calif.). Cells from at least 20 different donors were used in this study. Purity of the samples (>98%) was confirmed by flow cytometry with monoclonal antibody against human CD34. All experiments were performed in HSC expansion media (StemLine, Sigma) supplemented with 1× antibiotics, 20% BIT 9500 Serum Substitute (StemCell Technologies), 2 mM […] (Gibco) and the following human recombinant cytokines: SCF (100 ng/ml) and Tpo (100 ng/ml). In some occasions, the media was also supplemented by G-CSF (100 ng/ml), epidermal growth factor (EGF, 100 ng/ml), transforming growth factor beta 1 (TGF-beta1, 100 ng/ml), erythropoietin (EPO, 1 U/ml) and interleukin-3 (IL-3, 10 ng/ml). All cytokines were purchased from R&D Systems. After cells were cultured for 4 days, they were treated with different doses of cellular contractility inhibitors, including (±)-Blebbistatin (Bleb) (EMD Biosciences) and/or CH-223191 (Sigma) for indicated durations of up to 3 days. Cells were cultured at 37° C. in 5% CO2.
Surface marker analysis for HSC/Ps was done on either a LSR II flow cytometer or FACSCalibur (Becton Dickinson). […] Cells isolated from the bone marrow stained for 1 hr with APC anti-mouse CD47 (miap301, AbD Serotec), FITC anti-human CD47 (BD Biosciences), and PE anti-human CD11b, PE anti-human CD19 (both from BD Biosciences), or PE anti-human Glycophorin A (Invitrogen). Plts and RBCs were analyzed by staining with PE anti-mouse CD41 (eBioscience) and FITC anti-human CD41 (eBioscience) for 20 min, followed by analysis on FACSCalibur on log forward and side scatter scales.

[2] = target: T1, αIIbβ3 (Homo sapiens, UniProt P05106+P08514); assay: Platelet activation assay, PAC-1 binding; assay type: cell-based; details: thrombin 1 U/mL
T1 construct: endogenous in cells; host or cells: platelet-like fragments from megakaryocytes cultured from human bone-marrow CD34+ cells
Procedure: For platelet-activation assays, platelet-sided fraction isolated from either MK culture or NSG blood was resuspended in Tyrode's buffer supplemented with Mg^2+ and Ca^2+, and incubated with indicated agonists for 15 min at 37° C., followed by staining with FITC-conjugated anti-human P-selectin or PAC-1 antibody (BD Bioscience), APC-conjugated anti-human CD41, and in the case of xenograft samples, PE-conjugated anti-mouse CD41 for 15 min at room temperature, followed by fixation with 1.5% paraformaldehyde. Antibody-stained samples were then analyzed by flow cytometry. Platelet number was evaluated by mixing each sample with a defined number (˜10,000 beads per sample) of APC-conjugated beads (BD Bioscience). The number of platelets per sample was evaluated by: number of CD41^+ events/number of APC-bead events multiplied by total known number of APC-bead added per sample.

T1 sequence (P08514 32-887 limits assumed): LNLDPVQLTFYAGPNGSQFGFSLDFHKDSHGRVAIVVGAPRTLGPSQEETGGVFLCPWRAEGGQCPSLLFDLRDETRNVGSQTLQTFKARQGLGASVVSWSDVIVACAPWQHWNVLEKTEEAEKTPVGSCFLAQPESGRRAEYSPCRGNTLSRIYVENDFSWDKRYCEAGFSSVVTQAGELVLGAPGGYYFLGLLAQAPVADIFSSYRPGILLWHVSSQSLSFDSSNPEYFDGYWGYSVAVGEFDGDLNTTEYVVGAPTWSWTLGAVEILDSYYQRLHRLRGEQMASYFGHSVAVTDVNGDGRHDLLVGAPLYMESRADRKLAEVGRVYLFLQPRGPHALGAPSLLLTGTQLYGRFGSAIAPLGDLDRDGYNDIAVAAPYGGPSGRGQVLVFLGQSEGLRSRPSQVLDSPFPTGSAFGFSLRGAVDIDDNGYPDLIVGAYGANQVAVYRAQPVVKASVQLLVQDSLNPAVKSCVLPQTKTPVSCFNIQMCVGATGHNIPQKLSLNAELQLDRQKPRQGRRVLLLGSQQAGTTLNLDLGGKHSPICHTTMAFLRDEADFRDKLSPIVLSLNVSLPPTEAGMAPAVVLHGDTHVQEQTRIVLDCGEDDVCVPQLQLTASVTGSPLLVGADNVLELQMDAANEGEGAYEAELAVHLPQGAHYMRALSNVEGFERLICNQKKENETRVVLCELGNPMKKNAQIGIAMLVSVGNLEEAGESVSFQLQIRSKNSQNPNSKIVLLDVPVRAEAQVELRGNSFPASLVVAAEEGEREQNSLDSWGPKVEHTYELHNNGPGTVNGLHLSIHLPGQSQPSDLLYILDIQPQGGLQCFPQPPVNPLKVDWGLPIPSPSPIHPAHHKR
T1 sequence (P08514 891-1039 partner limits assumed): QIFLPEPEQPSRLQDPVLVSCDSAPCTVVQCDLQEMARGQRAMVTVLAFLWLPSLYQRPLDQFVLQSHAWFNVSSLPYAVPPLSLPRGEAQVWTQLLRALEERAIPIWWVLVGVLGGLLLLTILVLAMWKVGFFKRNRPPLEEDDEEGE
T1 sequence (P05106 27-788): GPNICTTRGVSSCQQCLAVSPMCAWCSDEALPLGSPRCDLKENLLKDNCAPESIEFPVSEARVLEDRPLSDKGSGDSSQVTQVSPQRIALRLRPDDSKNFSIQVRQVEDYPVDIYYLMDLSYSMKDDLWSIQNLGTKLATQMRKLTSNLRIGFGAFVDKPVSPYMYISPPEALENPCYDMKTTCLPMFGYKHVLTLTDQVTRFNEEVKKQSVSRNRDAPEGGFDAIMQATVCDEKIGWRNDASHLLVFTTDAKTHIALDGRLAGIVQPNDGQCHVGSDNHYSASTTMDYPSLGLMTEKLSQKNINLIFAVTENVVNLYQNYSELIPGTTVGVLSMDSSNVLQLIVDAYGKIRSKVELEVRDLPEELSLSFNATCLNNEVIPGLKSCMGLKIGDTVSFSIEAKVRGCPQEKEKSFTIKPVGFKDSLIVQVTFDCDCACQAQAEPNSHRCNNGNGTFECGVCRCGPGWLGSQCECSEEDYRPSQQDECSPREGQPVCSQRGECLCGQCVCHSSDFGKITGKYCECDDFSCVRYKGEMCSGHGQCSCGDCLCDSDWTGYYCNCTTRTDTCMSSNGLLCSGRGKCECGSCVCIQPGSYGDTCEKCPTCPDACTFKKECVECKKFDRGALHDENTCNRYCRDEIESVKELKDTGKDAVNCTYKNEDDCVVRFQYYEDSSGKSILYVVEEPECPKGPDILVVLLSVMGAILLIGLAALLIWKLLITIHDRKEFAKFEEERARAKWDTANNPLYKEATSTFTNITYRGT

In the case of `Cc1ccc2c(c1)C(=O)C1(O)CCN(c3ccccc3)C1=N2` (racemic) [blebbistatin, (±)-blebbistatin], the “change in primitive HSC cell number” value [1] is reported as less than 50%, the “enrichment for LT-HSCs” value ([1]; 20 μM, 2N cells) is reported as 15.6±4.1 fold and the IC50 ([1]; 2N cells, n≥4 donors, read-out: CPP and MPP number IC50) is reported as roughly 10.5 µM. The CPP depletion ([1]; 3-day treatment) was 31 fold, the “CPP depletion, range” value ([1]; 3-day treatment) was 15-48 fold and the “HSC enrichment, average” value ([1]; 3-day treatment) was 16 fold. The “HSC enrichment, range” value ([1]; 3-day treatment) was 5-24 fold, the MPP depletion ([1]; 3-day treatment) was 1.8 fold and the “MPP depletion, range” value ([1]; 3-day treatment) was 1.3-2.3 fold. The “HSC number, mean” value ([1]; normalized to initial cell input) was 646±77, the “HSC-to-MPP ratio vs untreated cells” value ([1]; on plastic) was roughly 4 fold and the Ki ([1]; read-out: inhibition constant Ki, MPPs and CPPs) was roughly 10.5 µM. The “PAC-1 binding of platelets derived from drug-exposed MKs” value [2] was “normal PAC-1 binding”.
